Results: patent US8299070B2, “Indole compounds and pharmaceutical use thereof” (Japan Tobacco Inc., priority 2009, dated 2012)

Biological target: T1, hITK enzyme (FLAG-tagged full-length hITK) (Homo sapiens, UniProt Q08881)
T1 construct: strongly expressing FLAG-tagged full-length hITK in Sf9 cells; FLAG; made in house; host or cells: Sf9 insect cells (ITK); Escherichia coli (GST-SLP76 substrate)
T1 sequence (Q08881 1-620): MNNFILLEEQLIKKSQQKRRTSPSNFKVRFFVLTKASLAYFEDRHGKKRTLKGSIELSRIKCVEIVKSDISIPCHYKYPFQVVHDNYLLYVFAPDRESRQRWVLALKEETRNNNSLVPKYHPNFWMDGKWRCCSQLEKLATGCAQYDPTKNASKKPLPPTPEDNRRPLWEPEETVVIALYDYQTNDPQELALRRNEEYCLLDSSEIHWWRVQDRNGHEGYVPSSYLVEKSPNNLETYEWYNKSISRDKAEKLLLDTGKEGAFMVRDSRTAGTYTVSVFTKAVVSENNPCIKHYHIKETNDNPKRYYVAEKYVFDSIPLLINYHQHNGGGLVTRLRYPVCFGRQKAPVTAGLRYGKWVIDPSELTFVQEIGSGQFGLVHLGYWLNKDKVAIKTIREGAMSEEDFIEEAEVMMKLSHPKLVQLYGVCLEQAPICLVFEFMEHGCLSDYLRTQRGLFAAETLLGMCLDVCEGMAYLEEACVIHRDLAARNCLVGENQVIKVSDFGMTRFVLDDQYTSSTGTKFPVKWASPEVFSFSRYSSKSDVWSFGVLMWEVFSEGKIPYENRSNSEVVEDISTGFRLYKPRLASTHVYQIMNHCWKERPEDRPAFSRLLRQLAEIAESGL
Assay: ITK inhibitory activity (HTRF kinase assay, biotinylated GST-SLP76 substrate)
Format: biochemical
Conditions: IC50 calculated from the 2 test compound concentrations sandwiching 50% ITK inhibitory rate
Procedure, shortened: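 Sf9-expressed hITK (50 ng/mL enzyme solution) reacted 10 min at RT in MOPS pH 7.0, 10 mmol/L MgCl2, 1 mmol/L DTT with E. coli SLP76 aa95–175 substrate; substrate solution held 100 µmol/L ATP (6 µmol/L for selected compounds). HTRF 665/620 ratio, blank-corrected; IC50 interpolated between two concentrations bracketing 50% inhibition.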

Row | Structure (SMILES) | IC50 [nM]
1 | CC1COCC(=O)N1C(C)C(=O)N(C)c1ccc2cc(-c3n[nH]c4c3CCC(C)(C)C4)[nH]c2c1 (centres unmarked) [Example 153] | 5
2 | CN(C(=O)Cn1cccn1)c1ccc2cc(-c3n[nH]c4c3CCC(C)(C)C4)[nH]c2c1 [Example 157] | 1
3 | CN(C(=O)CN1C(=O)CC[C@H]1CO)c1ccc2cc(-c3n[nH]c4c3CCC(C)(C)C4)[nH]c2c1 [Example 160] | 1
4 | CN(C(=O)CN1CC(O)CC1=O)c1ccc2cc(-c3n[nH]c4c3CCC(C)(C)C4)[nH]c2c1 (centres unmarked) [Example 164] | 3
5 | CC(=O)N1CCC[C@H]1C(=O)N(C)c1ccc2cc(-c3n[nH]c4c3CCC(C)(C)C4)[nH]c2c1 [Example 165] | 5
6 | CC(=O)N1CCC[C@@H]1C(=O)N(C)c1ccc2cc(-c3n[nH]c4c3CCC(C)(C)C4)[nH]c2c1 [Example 166] | 1
7 | CO[C@H](C)C(=O)N(C)c1ccc2cc(-c3n[nH]c4c3CCC(C)(C)C4)[nH]c2c1 [Example 168] | 3
8 | CN(C(=O)CN1CC[C@@H](O)CC1=O)c1ccc2cc(-c3n[nH]c4c3CCC(C)(C)C4)[nH]c2c1 [Example 170] | < 1
9 | C[C@@H]1COCC(=O)N1CC(=O)N(C)c1ccc2cc(-c3n[nH]c4c3CCC(C)(C)C4)[nH]c2c1 [Example 171] | 1
10 | CC(C)C(C(=O)N(C)c1ccc2cc(-c3n[nH]c4c3CCC(C)(C)C4)[nH]c2c1)N1CCOCC1 (centres unmarked) [Example 173] | 13
11 | CN(C(=O)CN1C(=O)CC[C@@H]1CO)c1ccc2cc(-c3n[nH]c4c3CCC(C)(C)C4)[nH]c2c1 [Example 177] | 2
12 | COCC(=O)N(C)CC(=O)N(C)c1ccc2cc(-c3n[nH]c4c3CCC(C)(C)C4)[nH]c2c1 [Example 180] | < 1
13 | C[C@@H]1CN(CC(=O)N(C)c2ccc3cc(-c4n[nH]c5c4CCC(C)(C)C5)[nH]c3c2)C(=O)CO1 [Example 182] | 2
14 | CN1CCN(CC(=O)N(C)c2ccc3cc(-c4n[nH]c5c4CCC(C)(C)C5)[nH]c3c2)C1=O [Example 186] | 1
15 | CC1CC(=O)N(CC(=O)N(C)c2ccc3cc(-c4n[nH]c5c4CCC(C)(C)C5)[nH]c3c2)C1 (centres unmarked) [Example 188] | 1
16 | CC[C@@H](C(=O)N(C)c1ccc2cc(-c3n[nH]c4c3CCC(C)(C)C4)[nH]c2c1)N1CCOCC1 [Example 190] | 4
17 | CC[C@H](C(=O)N(C)c1ccc2cc(-c3n[nH]c4c3CCC(C)(C)C4)[nH]c2c1)N1CCOCC1 [Example 191] | 7
18 | CC(=O)N(C)CC(=O)N(C)c1ccc2cc(-c3n[nH]c4c3CCC(C)(C)C4)[nH]c2c1 [Example 192] | 2
19 | CN(CC(=O)N(C)c1ccc2cc(-c3n[nH]c4c3CCC(C)(C)C4)[nH]c2c1)C(=O)CC(C)(C)O [Example 193] | 2
20 | CO[C@H]1CC[C@@H](C(=O)N(C)CC(=O)N(C)c2ccc3cc(-c4n[nH]c5c4CCC(C)(C)C5)[nH]c3c2)CC1 [Example 194] | 2
21 | CC(C(=O)N(C)c1ccc2cc(-c3n[nH]c4c3CCC(C)(C)C4)[nH]c2c1)N(C)C(=O)OC(C)(C)C (centres unmarked) [Example 195] | 20
22 | CN(C(=O)C1CCOC1(C)C)c1ccc2cc(-c3n[nH]c4c3CCC(C)(C)C4)[nH]c2c1 (centres unmarked) [Example 201] | 10
23 | CC(=O)N(C)[C@@H](C)C(=O)N(C)c1ccc2cc(-c3n[nH]c4c3CCC(C)(C)C4)[nH]c2c1 [Example 202] | 14
24 | CCN(C(=O)COC)c1ccc2cc(-c3n[nH]c4c3CCC(C)(C)C4)[nH]c2c1 [Example 207] | 4
25 | CCC(=O)N(CCO)c1ccc2cc(-c3n[nH]c4c3CCC(C)(C)C4)[nH]c2c1 [Example 209] | 4
26 | CC1(C)CCc2c(-c3cc4ccc(N5CCCCC5=O)cc4[nH]3)n[nH]c2C1 [Example 211] | 33
27 | CCC(=O)N(CCOC)c1ccc2cc(-c3n[nH]c4c3CCC(C)(C)C4)[nH]c2c1 [Example 212] | 5

Continued, values first:

Row | IC50 [nM] | Structure (SMILES)
28 | 3 | CN(C(=O)[C@@H]1CCC(=O)N1C)c1ccc2cc(-c3n[nH]c4c3CCC(C)(C)C4)[nH]c2c1 [Example 151]
29 | 14 | CC1COCC(=O)N1C(C)C(=O)N(C)c1ccc2cc(-c3n[nH]c4c3CCC(C)(C)C4)[nH]c2c1 (centres unmarked) [Example 152]
30 | 2 | CN(C(=O)CN1CCOC1=O)c1ccc2cc(-c3n[nH]c4c3CCC(C)(C)C4)[nH]c2c1 [Example 154]
31 | 9 | CO[C@H]1CN(CC(=O)N(C)c2ccc3cc(-c4n[nH]c5c4CCC(C)(C)C5)[nH]c3c2)C[C@H]1OC [Example 155]
32 | < 1 | CN(C(=O)Cn1ccccc1=O)c1ccc2cc(-c3n[nH]c4c3CCC(C)(C)C4)[nH]c2c1 [Example 156]
33 | 5 | CN(C(=O)C(CO)OC1CCCC1)c1ccc2cc(-c3n[nH]c4c3CCC(C)(C)C4)[nH]c2c1 (centres unmarked) [Example 158]
34 | 7 | CC(C)OC(CO)C(=O)N(C)c1ccc2cc(-c3n[nH]c4c3CCC(C)(C)C4)[nH]c2c1 (centres unmarked) [Example 159]
35 | 22 | CN(C(=O)C(C)(C)N1CCOCC1)c1ccc2cc(-c3n[nH]c4c3CCC(C)(C)C4)[nH]c2c1 [Example 161]
36 | 1 | CC1CCN(CC(=O)N(C)c2ccc3cc(-c4n[nH]c5c4CCC(C)(C)C5)[nH]c3c2)C1=O (centres unmarked) [Example 162]
37 | 1 | CN(C(=O)CN1CC(C)(C)CC1=O)c1ccc2cc(-c3n[nH]c4c3CCC(C)(C)C4)[nH]c2c1 [Example 163]
38 | 1 | CC1OCCN(CC(=O)N(C)c2ccc3cc(-c4n[nH]c5c4CCC(C)(C)C5)[nH]c3c2)C1=O (centres unmarked) [Example 167]
39 | 3 | CO[C@@H](C)C(=O)N(C)c1ccc2cc(-c3n[nH]c4c3CCC(C)(C)C4)[nH]c2c1 [Example 169]
40 | 2 | C[C@H]1COCC(=O)N1CC(=O)N(C)c1ccc2cc(-c3n[nH]c4c3CCC(C)(C)C4)[nH]c2c1 [Example 172]
41 | 2 | CN(C(=O)CN1CCCC(C)(C)C1=O)c1ccc2cc(-c3n[nH]c4c3CCC(C)(C)C4)[nH]c2c1 [Example 174]
42 | 2 | CN(C(=O)CN1CC(C)(C)CCC1=O)c1ccc2cc(-c3n[nH]c4c3CCC(C)(C)C4)[nH]c2c1 [Example 175]
43 | 7 | COC1CCC(CC(=O)N(C)c2ccc3cc(-c4n[nH]c5c4CCC(C)(C)C5)[nH]c3c2)CC1 (centres unmarked) [Example 176]
44 | 4 | CN(CC(=O)N(C)c1ccc2cc(-c3n[nH]c4c3CCC(C)(C)C4)[nH]c2c1)C(=O)OCc1ccccc1 [Example 178]

Row | IC50 [nM] | Structure (SMILES)
45 | 1 | CN(CC(=O)N(C)c1ccc2cc(-c3n[nH]c4c3CCC(C)(C)C4)[nH]c2c1)C(=O)C(C)(C)C [Example 179]
46 | 1 | CN(C(=O)CN1CCC(C)(C)C1=O)c1ccc2cc(-c3n[nH]c4c3CCC(C)(C)C4)[nH]c2c1 [Example 183]
47 | 1 | CN(C(=O)CN1CC(C)(C)OCC1=O)c1ccc2cc(-c3n[nH]c4c3CCC(C)(C)C4)[nH]c2c1 [Example 184]
48 | 2 | CN(C(=O)CN1CCNC1=O)c1ccc2cc(-c3n[nH]c4c3CCC(C)(C)C4)[nH]c2c1 [Example 185]
49 | 2 | CN(C(=O)CN1CCCCCCC1=O)c1ccc2cc(-c3n[nH]c4c3CCC(C)(C)C4)[nH]c2c1 [Example 187]
50 | 1 | CN(C(=O)CN1CCC(C)(C)CC1=O)c1ccc2cc(-c3n[nH]c4c3CCC(C)(C)C4)[nH]c2c1 [Example 189]
51 | 4 | COC[C@H]1CCC(=O)N1CC(=O)N(C)c1ccc2cc(-c3n[nH]c4c3CCC(C)(C)C4)[nH]c2c1 [Example 196]
52 | 2 | COC[C@@H]1CCC(=O)N1CC(=O)N(C)c1ccc2cc(-c3n[nH]c4c3CCC(C)(C)C4)[nH]c2c1 [Example 197]
53 | 1 | COC(=O)N(C)CC(=O)N(C)c1ccc2cc(-c3n[nH]c4c3CCC(C)(C)C4)[nH]c2c1 [Example 198]
54 | 2 | CC(C)C(=O)N(C)CC(=O)N(C)c1ccc2cc(-c3n[nH]c4c3CCC(C)(C)C4)[nH]c2c1 [Example 199]
55 | 1 | CN(CC(=O)N(C)c1ccc2cc(-c3n[nH]c4c3CCC(C)(C)C4)[nH]c2c1)C(=O)C1CC1 [Example 200]
56 | 12 | CCC(=O)N(C)[C@@H](C)C(=O)N(C)c1ccc2cc(-c3n[nH]c4c3CCC(C)(C)C4)[nH]c2c1 [Example 203]
57 | 27 | C[C@@H](C(=O)N(C)c1ccc2cc(-c3n[nH]c4c3CCC(C)(C)C4)[nH]c2c1)N(C)C(=O)C1CC1 [Example 205]
58 | 5 | CCN(C(=O)CO)c1ccc2cc(-c3n[nH]c4c3CCC(C)(C)C4)[nH]c2c1 [Example 206]
59 | 29 | CC1(C)CCc2c(-c3cc4ccc(N5CCOC5=O)cc4[nH]3)n[nH]c2C1 [Example 208]
60 | 36 | CC1(C)CCc2c(-c3cc4ccc(N5CCCC5=O)cc4[nH]3)n[nH]c2C1 [Example 210]
61 | < 3 | COCC(=O)N(CCO)c1ccc2cc(-c3n[nH]c4c3CCC(C)(C)C4)[nH]c2c1 [Example 213]

Same assay, conditions: at 30 nM test compound; read-out: ITK inhibitory rate (%)

Row | inhibition at 0.03 µM [%] | Structure (SMILES)
62 | 49.2 | CC(C)C(=O)N(C)[C@@H](C)C(=O)N(C)c1ccc2cc(-c3n[nH]c4c3CCC(C)(C)C4)[nH]c2c1 [Example 204]
